According to US10144732B2 (BIOGEN MA INC., priority 2014, dated 2018):
pIC50: −log10 of the molar value. Structures can show the parent of a compound that is named as a salt.

Molecular target: T1, Human ATX protein (Homo sapiens, UniProt Q13822)
T1 construct: made in house
Experiment: ATX biochemical assay (FRET, FS-3 substrate)
Details: FRET assay, FS-3 2 μM, ATX 1.0 μg/mL, 30 minutes preincubation, 2 hours reaction at room temperature; read-out: IC50
How it was run: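 In-house human ATX (1.0 μg/mL final) was preincubated with compound for 30 min at room temperature in Tris buffer pH 7.4 with 1 mg/mL fatty acid free-BSA. FS-3 substrate (2 μM final) was then hydrolysed for 2 hours at room temperature, protected from light, and read as fluorescence at ex 485/em 538 nm.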

Row | pIC50 | Compound
1 | ≥ 7.00 | CCOC(=O)[C@H]1CC[C@H](CC(=O)N2CCc3c(C(F)(F)F)nn(Cc4ccc(Cl)cc4F)c3C2)CC1 [Example 2-1, trans-Ethyl 4-(2-(1-(4-chloro-2-fluorobenzyl)-3-(trifluoromethyl)-4,5-dihydro-1H-pyrazolo[3,4-c]pyridin-6(7H)-yl)-2-oxoethyl)cyclohexanecarboxylate]
2 | ≥ 7.00 | CN1CC(CC(=O)N2CCc3c(C(F)(F)F)nn(Cc4ccc(Cl)cc4F)c3C2)C[C@@H]1C(=O)O (stereo partly drawn) [Example 10-10, (2R)-4-(2-(1-(4-chloro-2-fluorobenzyl)-3-(trifluoromethyl)-4,5-dihydro-1H-pyrazolo[3,4-c]pyridin-6(7H)-yl)-2-oxoethyl)-1-methylpyrrolidine-2-carboxylic acid TFA salt]
3 | ≥ 7.00 | O=C(Cc1ccccc1)N1CCc2c(C(F)(F)F)nn(Cc3ccc(Cl)cc3F)c2C1 [Example 1-3, 1-(1-(4-Chloro-2-fluorobenzyl)-3-(trifluoromethyl)-4,5-dihydro-1H-pyrazolo[3,4-c]pyridin-6(7H)-yl)-2-phenylethanone]
4 | ≥ 7.00 | O=C(O)C1CCC(CC(=O)N2CCc3c(C(F)(F)F)nn(CC4CCCCC4)c3C2)CC1 (single isomer, unassigned) [Example 7-13, 4-(2-(1-(cyclohexylmethyl)-3-(trifluoromethyl)-4,5-dihydro-1H-pyrazolo[3,4-c]pyridin-6(7H)-yl)-2-oxoethyl)cyclohexanecarboxylic acid]
5 | ≥ 7.00 | N#Cc1ccc(Cn2nc(C(F)(F)F)c3c2CN(C(=O)C[C@H]2CC[C@@H](C(=O)O)CC2)CC3)cc1 (stereo in doubt) [Example 5-35, cis-4-(2-(1-(4-Cyanobenzyl)-3-(trifluoromethyl)-4,5-dihydro-1H-pyrazolo[3,4-c]pyridin-6(7H)-yl)-2-oxoethyl)cyclohexanecarboxylic acid]
6 | ≥ 7.00 | O=C(C[C@H]1CC[C@@H](C(=O)O)CC1)N1CCc2cnn(Cc3ccc(Cl)cc3F)c2C1 [Example 7-4, cis-4-(2-(1-(4-chloro-2-fluorobenzyl)-4,5-dihydro-1H-pyrazolo[3,4-c]pyridin-6(7H)-yl)-2-oxoethyl)cyclohexanecarboxylic acid]
7 | ≥ 7.00 | CC(C)(C)OC(=O)N1CCC(CC(=O)N2CCc3c(C(F)(F)F)nn(Cc4ccc(Cl)cc4F)c3C2)CC1C(F)(F)F (stereo not drawn) [Example 8-7, tert-Butyl 4-(2-(1-(4-chloro-2-fluorobenzyl)-3-(trifluoromethyl)-4,5-dihydro-1H-pyrazolo[3,4-c]pyridin-6(7H)-yl)-2-oxoethyl)-2-(trifluoromethyl)piperidine-1-carboxylate]
8 | ≥ 7.00 | O=C(O)C1CCCN(CC(=O)N2CCc3c(C(F)(F)F)nn(Cc4ccc(F)cc4)c3C2)CC1 (stereo not drawn) [Example 13-19, 1-(2-(1-(4-Fluorobenzyl)-3-(trifluoromethyl)-4,5-dihydro-1H-pyrazolo[3,4-c]pyridin-6(7H)-yl)-2-oxoethyl)azepane-4-carboxylic acid TFA salt]
9 | ≥ 7.00 | O=C(O)CC1CCN(CC(=O)N2CCc3c(C(F)(F)F)nn(Cc4ccc(Cl)cc4F)c3C2)C1 (stereo not drawn) [Example 13-24, 2-(1-(2-(1-(4-Chloro-2-fluorobenzyl)-3-(trifluoromethyl)-4,5-dihydro-1H-pyrazolo[3,4-c]pyridin-6(7H)-yl)-2-oxoethyl)pyrrolidin-3-yl)acetic acid TFA salt]
10 | ≥ 7.00 | O=C(CC1CNCCO1)N1CCc2c(C(F)(F)F)nn(Cc3ccc(F)cc3)c2C1 (stereo not drawn) [Example 9-16, 1-(1-(4-Fluorobenzyl)-3-(trifluoromethyl)-4,5-dihydro-1H-pyrazolo[3,4-c]pyridin-6(7H)-yl)-2-(morpholin-2-yl)ethanone TFA salt]
11 | ≥ 7.00 | CCCC1CC(CC(=O)N2CCc3c(C(F)(F)F)nn(Cc4ccc(F)cc4)c3C2)CCN1C(=O)OC(C)(C)C (stereo not drawn) [Example 8-9, tert-Butyl 4-(2-(1-(4-fluorobenzyl)-3-(trifluoromethyl)-4,5-dihydro-1H-pyrazolo[3,4-c]pyridin-6(7H)-yl)-2-oxoethyl)-2-propylpiperidine-1-carboxylate]
12 | ≥ 7.00 | CCCC1CC(CC(=O)N2CCc3c(C(F)(F)F)nn(Cc4ccc(F)cc4)c3C2)CCN1 (stereo not drawn) [Example 9-12, 1-(1-(4-Fluorobenzyl)-3-(trifluoromethyl)-4,5-dihydro-1H-pyrazolo[3,4-c]pyridin-6(7H)-yl)-2-(2-propylpiperidin-4-yl)ethanone acid TFA salt]
13 | ≥ 7.00 | O=C(O)CN1CCC(CC(=O)N2CCc3c(C(F)(F)F)nn(Cc4ccc(Cl)cc4F)c3C2)CC1 [Example 15-1, 2-(4-(2-(1-(4-Chloro-2-fluorobenzyl)-3-(trifluoromethyl)-4,5-dihydro-1H-pyrazolo[3,4-c]pyridin-6(7H)-yl)-2-oxoethyl)piperidin-1-yl)acetic acid]
14 | ≥ 7.00 | CCOC(=O)C1CCCN(CC(=O)N2CCc3c(C(F)(F)F)nn(Cc4ccc(F)cc4)c3C2)C1 (stereo not drawn) [Example 12-5, Ethyl 1-(2-(1-(4-fluorobenzyl)-3-(trifluoromethyl)-4,5-dihydro-1H-pyrazolo[3,4-c]pyridin-6(7H)-yl)-2-oxoethyl)piperidine-3-carboxylate]
15 | ≥ 7.00 | COC(=O)C1CCN(CC(=O)N2CCc3c(C(F)(F)F)nn(Cc4ccc(F)cc4)c3C2)C1 (stereo not drawn) [Example 12-7, Methyl 1-(2-(1-(4-fluorobenzyl)-3-(trifluoromethyl)-4,5-dihydro-1H-pyrazolo[3,4-c]pyridin-6(7H)-yl)-2-oxoethyl)pyrrolidine-3-carboxylate]
16 | ≥ 7.00 | O=C(O)C1CCC(CC(=O)N2CCc3c(C(F)(F)F)nn(Cc4ccccc4F)c3C2)CC1 (mixture of isomers) [Example 6-3, 4-(2-(1-(2-Fluorobenzyl)-3-(trifluoromethyl)-4,5-dihydro-1H-pyrazolo[3,4-c]pyridin-6(7H)-yl)-2-oxoethyl)cyclohexanecarboxylic acid]
17 | < 5.00 | O=C(C1CCCCC1)N1CCc2c(C(F)(F)F)nn(Cc3ccc(Cl)cc3F)c2C1 [Example 1-6, (1-(4-Chloro-2-fluorobenzyl)-3-(trifluoromethyl)-4,5-dihydro-1H-pyrazolo[3,4-c]pyridin-6(7H)-yl) (cyclohexyl)methanone]
18 | ≥ 7.00 | O=C(CC1CC(N2CC(F)(F)C2)C1)N1CCc2c(C(F)(F)F)nn(Cc3ccc(F)cc3)c2C1 (stereo not drawn) [Example 22-2, TFA salt]
19 | ≥ 7.00 | O=C(C[C@H]1CC[C@H](C(=O)O)CC1)N1CCc2c(-c3ccccc3)nn(Cc3ccc(F)cc3)c2C1 [Example 5-39, trans-4-(2-(1-(4-Fluorobenzyl)-3-phenyl-4,5-dihydro-1H-pyrazolo[3,4-c]pyridin-6(7H)-yl)-2-oxoethyl)cyclohexanecarboxylic acid]
20 | ≥ 7.00 | N[C@H]1CC[C@H](CC(=O)N2CCc3c(C(F)(F)F)nn(Cc4ccc(F)cc4)c3C2)CC1 [Example 9-20, 2-(trans-4-Aminocyclohexyl)-1-(1-(4-fluorobenzyl)-3-(trifluoromethyl)-4,5-dihydro-1H-pyrazolo[3,4-c]pyridin-6(7H)-yl)ethanone TFA salt]
21 | ≥ 7.00 | CCC1CC(CC(=O)N2CCc3c(C(F)(F)F)nn(Cc4ccc(F)cc4)c3C2)CCN1 (stereo not drawn) [Example 9-11, 2-(2-Ethylpiperidin-4-yl)-1-(1-(4-fluorobenzyl)-3-(trifluoromethyl)-4,5-dihydro-1H-pyrazolo[3,4-c]pyridin-6(7H)-yl)ethanone TFA salt]
